Test results: publication PMC8515367 (ACS Omega, 2021)
Where a chain is given by its changes, count along the chain named. Values joined by “and” are separate entries in the source; they are usually repeats but may differ in a detail not shown here. Equal entries are not always repeated. Where two headings read alike, the source gives them in different places.

Columns and labels:
T113V/G121V-ecDHFR [1] = target: T1, T113V/G121V-ecDHFR (Escherichia coli, UniProt P0ABQ4, G121V/T113V); test: Ligand-binding assay, tryptophan fluorescence titration
T1 sequence (P0ABQ4 1-159 T113V/G121V): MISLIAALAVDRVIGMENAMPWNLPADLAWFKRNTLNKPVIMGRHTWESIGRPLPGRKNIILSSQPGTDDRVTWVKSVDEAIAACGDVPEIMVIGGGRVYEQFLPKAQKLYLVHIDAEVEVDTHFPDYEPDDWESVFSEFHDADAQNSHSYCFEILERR

M42F/G121S-ecDHFR [2] = target: T2, M42F/G121S-ecDHFR (Escherichia coli, UniProt P0ABQ4, G121S/M42F); test: as above
T2 sequence (P0ABQ4 1-159 M42F/G121S): T1 sequence (P0ABQ4 1-159 T113V/G121V) with M42F, V113T, V121S

T113V/G121S-ecDHFR [3] = target: T3, T113V/G121S-ecDHFR (Escherichia coli, UniProt P0ABQ4, G121S/T113V); test: Double-mutant cycle analysis of ligand binding; settings: A′ = T113V, B′ = G121S
T3 sequence (P0ABQ4 1-159 T113V/G121S): T1 sequence (P0ABQ4 1-159 T113V/G121V) with V121S

wildtype ecDHFR [4] = target: T4, wildtype ecDHFR (Escherichia coli, UniProt P0ABQ4); test: Ligand-binding assay, tryptophan fluorescence titration
T4 sequence (P0ABQ4 1-159): T1 sequence (P0ABQ4 1-159 T113V/G121V) with V113T, V121G

T113V/G121V-ecDHFR [5] = target: T1, T113V/G121V-ecDHFR; test: Double-mutant cycle analysis of ligand binding; settings: A′ = T113V, B′ = G121V
G121S-ecDHFR [6] = target: T5, G121S-ecDHFR (Escherichia coli, UniProt P0ABQ4, G121S); settings: cited from earlier work
T5 sequence (P0ABQ4 1-159 G121S): T1 sequence (P0ABQ4 1-159 T113V/G121V) with V113T, V121S

T113V-ecDHFR = target: T6, T113V-ecDHFR (Escherichia coli, UniProt P0ABQ4, T113V); test: Ligand-binding assay, tryptophan fluorescence titration
T6 sequence (P0ABQ4 1-159 T113V): T1 sequence (P0ABQ4 1-159 T113V/G121V) with V121G

T113V/G121S-ecDHFR [7] = target: T3, T113V/G121S-ecDHFR; test: as above
M42F/G121S-ecDHFR [8] = target: T2, M42F/G121S-ecDHFR; test: Double-mutant cycle analysis of ligand binding; settings: A′ = M42F, B′ = G121S
G121S-ecDHFR [9] = target: T5, G121S-ecDHFR; test: Ligand-binding assay, tryptophan fluorescence titration
M42F/G121V-ecDHFR [10] = target: T7, M42F/G121V-ecDHFR (Escherichia coli, UniProt P0ABQ4, G121V/M42F); test: as above
T7 sequence (P0ABQ4 1-159 M42F/G121V): T1 sequence (P0ABQ4 1-159 T113V/G121V) with M42F, V113T

wildtype ecDHFR [11] = target: T4, wildtype ecDHFR; settings: read-out: KD^NADPH, previous reports; cited from earlier work
M42F/G121V-ecDHFR [12] = target: T7, M42F/G121V-ecDHFR; test: Double-mutant cycle analysis of ligand binding; settings: A′ = M42F, B′ = G121V
G121V-ecDHFR [13] = target: T8, G121V-ecDHFR (Escherichia coli, UniProt P0ABQ4, G121V); test: Ligand-binding assay, tryptophan fluorescence titration
T8 sequence (P0ABQ4 1-159 G121V): T1 sequence (P0ABQ4 1-159 T113V/G121V) with V113T

G121V-ecDHFR [14] = target: T8, G121V-ecDHFR; settings: cited from earlier work
M42F-ecDHFR = target: T9, M42F-ecDHFR (Escherichia coli, UniProt P0ABQ4, M42F); test: Ligand-binding assay, tryptophan fluorescence titration
T9 sequence (P0ABQ4 1-159 M42F): T1 sequence (P0ABQ4 1-159 T113V/G121V) with M42F, V113T, V121G

T113V mutants of ecDHFR = settings: cited from earlier work

NC(=O)C1=CN([C@@H]2O[C@H](COP(=O)(O)OP(=O)(O)OC[C@H]3O[C@@H](n4cnc5c(N)ncnc54)[C@H](OP(=O)(O)O)[C@@H]3O)[C@@H](O)[C@H]2O)C=CC1 [NADPH, nicotinamide adenine dinucleotide phosphate]
Kd (T113V/G121V-ecDHFR [1]): 137 ± 1.94 µM
Kd (M42F/G121S-ecDHFR [2]): 116 ± 20.1 µM
ΔG1 (T113V/G121S-ecDHFR [3]): 5.98 kcal/mol
ΔG2 (T113V/G121S-ecDHFR [3]): 5.12 kcal/mol
ΔG′1 (T113V/G121S-ecDHFR [3]): 5.19 kcal/mol
ΔG′2 (T113V/G121S-ecDHFR [3]): 4.33 kcal/mol
ΔΔG (T113V/G121S-ecDHFR [3]): –0.79 kcal/mole
Kd (wildtype ecDHFR [4]; KD^NADPH, 5 μM ecDHFR, ΔF340nm analysis, fitted up to 100 μM NADPH): 1230 ± 60 nM
KD^NADPH weaker than previous reports (wildtype ecDHFR [4]; versus 0.34 and […]): 3∼4 fold
ΔG1 (T113V/G121V-ecDHFR [5]): 5.98 kcal/mol
ΔG2 (T113V/G121V-ecDHFR [5]): 5.69 kcal/mol
ΔG′1 (T113V/G121V-ecDHFR [5]): 5.99 kcal/mol
ΔG′2 (T113V/G121V-ecDHFR [5]): 5.71 kcal/mol
ΔΔG (T113V/G121V-ecDHFR [5]): 0.02 kcal/mol
NADPH binding weakened (G121S-ecDHFR [6]): 10 fold
Kd (T113V-ecDHFR): 13.7 ± 1.82 µM
Kd (T113V/G121S-ecDHFR [7]): 77.5 ± 19.2 µM
ΔG1 (M42F/G121S-ecDHFR [8]): 8.20 kcal/mol
ΔG2 (M42F/G121S-ecDHFR [8]): 5.12 kcal/mol
ΔG′1 (M42F/G121S-ecDHFR [8]): 6.13 kcal/mol
ΔG′2 (M42F/G121S-ecDHFR [8]): 3.06 kcal/mol
ΔΔG (M42F/G121S-ecDHFR [8]): –2.06 kcal/mole
Kd (G121S-ecDHFR [9]): 9.73 ± 2.4 µM
Kd (M42F/G121V-ecDHFR [10]): 74 ± 9.09 µM
Kd (wildtype ecDHFR [11]): 340 nM and 440 nM
ΔG1 (M42F/G121V-ecDHFR [12]): 8.20 kcal/mol
ΔG2 (M42F/G121V-ecDHFR [12]): 5.69 kcal/mol
ΔG′1 (M42F/G121V-ecDHFR [12]): 4.45 kcal/mol
ΔG′2 (M42F/G121V-ecDHFR [12]): 1.95 kcal/mol
ΔΔG (M42F/G121V-ecDHFR [12]): –3.75 kcal/mole
Kd (G121V-ecDHFR [13]): 12.2 ± 1.41 µM
NADPH binding weakened (G121V-ecDHFR [14]): 40 fold
Kd (M42F-ecDHFR): 33.6 ± 2.67 µM

Nc1nc(=O)c2c([nH]1)NCC(CNc1ccc(C(=O)N[C@@H](CCC(=O)O)C(=O)O)cc1)=N2 [H2F, 7,8-dihydrofolate]
decrease in H2F-binding affinity (T113V mutants of ecDHFR): 20–30 fold
